How the values were obtained:
Assay type in all cases: functional
Rattus norvegicus [1] = experiment: Hypoglycemic activity by lowering blood glucose in normal rats by 20% after oral administration.
Rattus norvegicus [2] = experiment: Hypoglycemic activity by lowering blood glucose in normal rats by 50% after oral administration.
Rattus norvegicus [3] = experiment: Hypoglycemic activity by lowering blood glucose in streptozotocin-diabetic rats by 20% after oral administration.
Rattus norvegicus [4] = experiment: Compound evaluated for hypoglycemic activity by lowering blood glucose in streptozotocin-diabetic rats by 20% after oral administration (highest dose tested)
Rattus norvegicus [5] = experiment: Compound evaluated for hypoglycemic activity by lowering blood glucose in normal rats by 50% after oral administration (highest dose tested)
Rattus norvegicus [6] = experiment: Compound evaluated for hypoglycemic activity by lowering blood glucose in streptozotocin-diabetic rats by 20% after oral administration
Rattus norvegicus [7] = experiment: Compound evaluated for hypoglycemic activity by lowering blood glucose in streptozotocin-diabetic rats by 20% after oral administration; Inactive(less than 10% blood sugar decrease)

SMILES | ED20 (Rattus norvegicus [1]) [mmol/kg] | ED50 (Rattus norvegicus [2]) [µmol/kg] | also measured
N=C1N(C2CCCCC2)CCN1S(=O)(=O)c1ccc(CCNC(=O)C2CC=CCC2)cc1 (stereo not drawn) | 0.0044 | 15 | ED20 (Rattus norvegicus [3]): 0.39 mmol/kg
Cc1cnc(C(=O)NCCc2ccc(S(=O)(=O)N3CCN(C4CCCCC4)C3=N)cc2)cn1 | 0.01 | 100 | ED20 (Rattus norvegicus [4]): > 0.61 mmol/kg
N=C1N(C2CCCCC2)CCN1S(=O)(=O)c1ccc(CCNC(=O)c2ccccc2Cl)cc1 | 0.023 | 230 | 
COc1ccccc1C(=O)NCCc1ccc(S(=O)(=O)N2CCN(C3CCCCC3)C2=N)cc1 | 0.093 |  | ED50 (Rattus norvegicus [5]): > 830 µmol/kg
N=C1N(C2CCCCC2)CCN1S(=O)(=O)c1ccc(CCNC(=O)CN)cc1 | 0.39 |  | ED20 (Rattus norvegicus [3]): 0.62 mmol/kg
CSCC(=O)NCCc1ccc(S(=O)(=O)N2CCN(C3CCCCC3)C2=N)cc1 | 0.081 | 190 | 
CCCOCC(=O)NCCc1ccc(S(=O)(=O)N2CCN(C3CCCCC3)C2=N)cc1 | 0.1 | 350 | 
CC(Nc1ccccc1)C(=O)NCCc1ccc(S(=O)(=O)N2CCN(C3CCCCC3)C2=N)cc1 (stereo not drawn) | 0.06 | 200 | ED20 (Rattus norvegicus [3]): 0.4 mmol/kg
N=C1N(C2CCCCC2)CCN1S(=O)(=O)c1ccc(CCNC(=S)Nc2ccccc2)cc1 | 0.063 | 630 | 
N=C1N(C2CCCCC2)CCN1S(=O)(=O)c1ccc(CCNC(=O)c2cccs2)cc1 | 0.022 | 170 | 
N=C1N(C2CCCCC2)CCN1S(=O)(=O)c1ccc(CCNC(=O)C2CC2)cc1 | 0.034 | 150 | 
CC(C)CC(=O)NCCc1ccc(S(=O)(=O)N2CCN(C3CCCCC3)C2=N)cc1 | 0.046 | 150 | 
CCCC/N=C(\S)NCCc1ccc(S(=O)(=O)N2CCN(C3CCCCC3)C2=N)cc1 | 0.015 | 210 | 
N=C1N(C2CCCCC2)CCN1S(=O)(=O)c1ccc(CCNC(=O)Nc2ccccc2)cc1 | 0.85 |  | 
CC(C)/C=C/C(=O)NCCc1ccc(S(=O)(=O)N2CCN(C3CCCCC3)C2=N)cc1 | 0.0096 | 34 | 
CC1(C(=O)NCCc2ccc(S(=O)(=O)N3CCN(C4CCCCC4)C3=N)cc2)CC=CCC1 (stereo not drawn) | 0.053 | 170 | 
CCS(=O)(=O)CC(=O)NCCc1ccc(S(=O)(=O)N2CCN(C3CCCCC3)C2=N)cc1 | 0.11 | 530 | ED20 (Rattus norvegicus [6]): 0.83 mmol/kg
CCC(CC)C(=O)NCCc1ccc(S(=O)(=O)N2CCN(C3CCCCC3)C2=N)cc1 | 0.098 |  | ED50 (Rattus norvegicus [5]): > 890 µmol/kg
N=C1N(C2CCCCC2)CCN1S(=O)(=O)c1ccc(CCNC(=O)c2cccnc2)cc1 | 0.034 | 160 | ED20 (Rattus norvegicus [4]): > 0.22 mmol/kg
CCCCCC/N=C(\S)NCCc1ccc(S(=O)(=O)N2CCN(C3CCCCC3)C2=N)cc1 | 0.3 |  | ED50 (Rattus norvegicus [5]): > 610 µmol/kg
N=C1N(C2CCCCC2)CCN1S(=O)(=O)c1ccc(CCNC(=O)c2cnccn2)cc1 | 0.12 | 480 | ED20 (Rattus norvegicus [4]): > 0.22 mmol/kg
CCCSCC(=O)NCCc1ccc(S(=O)(=O)N2CCN(C3CCCCC3)C2=N)cc1 | 0.1 | 550 | 
Cc1cc(C(=O)NCCc2ccc(S(=O)(=O)N3CCN(C4CCCCC4)C3=N)cc2)no1 | 0.022 | 130 | ED20 (Rattus norvegicus [3]): 0.14 mmol/kg
N=C1N(C2CCCCC2)CCN1S(=O)(=O)c1ccc(CCNC(=S)NC2CCCCC2)cc1 | 0.16 |  | ED50 (Rattus norvegicus [5]): > 820 µmol/kg

SMILES | ED20 (Rattus norvegicus [1]) [mmol/kg] | ED50 (Rattus norvegicus [2]) [µmol/kg] | also measured
CCCCC(=O)NCCc1ccc(S(=O)(=O)N2CCN(C3CCCCC3)C2=N)cc1 | 0.035 | 120 | 
C/C=C/C(=O)NCCc1ccc(S(=O)(=O)N2CCN(C3CCCCC3)C2=N)cc1 | 0.0028 | 9.6 | ED20 (Rattus norvegicus [3]): 0.18 mmol/kg
N=C1N(C2CCCCC2)CCN1S(=O)(=O)c1ccc(CCNC(=O)CCC2CCC2)cc1 | 0.052 | 200 | 
COc1ccc(C(=O)NCCc2ccc(S(=O)(=O)N3CCN(C4CCCCC4)C3=N)cc2)cc1 | 0.064 | 830 | 
N=C1N(C2CCCCC2)CCN1S(=O)(=O)c1ccc(CCNC(=O)CCNc2ccccc2)cc1 | 0.24 |  | ED20 (Rattus norvegicus [3]): 0.8 mmol/kg
COc1ccc(Cl)cc1C(=O)NCCc1ccc(S(=O)(=O)N2CCN(C3CCCCC3)C2=N)cc1 | 0.12 |  | ED50 (Rattus norvegicus [5]): > 770 µmol/kg
N=C1N(C2CCCCC2)CCN1S(=O)(=O)c1ccc(CCNC(=O)c2ccc(Cl)c(Cl)c2)cc1 | 0.37 |  | ED50 (Rattus norvegicus [5]): > 760 µmol/kg
CCCCNC(=O)NCCc1ccc(S(=O)(=O)N2CCN(C3CCCCC3)C2=N)cc1 | 0.067 | 330 | 
CCCCOC(=O)NCCc1ccc(S(=O)(=O)N2CCN(C3CCCCC3)C2=N)cc1 | 0.079 | 890 | ED20 (Rattus norvegicus [3]): 0.89 mmol/kg
N=C1N(C2CCCCC2)CCN1S(=O)(=O)c1ccc(CCNC(=O)C(N)c2ccccc2)cc1 (stereo not drawn) | 0.029 | 76 | ED20 (Rattus norvegicus [7]): > 0.18 mmol/kg
N=C1N(C2CCCCC2)CCN1S(=O)(=O)c1ccc(CCNC(=O)c2cncnc2)cc1 | 0.2 |  | ED50 (Rattus norvegicus [5]): > 590 µmol/kg; ED20 (Rattus norvegicus [4]): > 0.59 mmol/kg
COCCC(=O)NCCc1ccc(S(=O)(=O)N2CCN(C3CCCCC3)C2=N)cc1 | 0.033 | 220 | 
N=C1N(C2CCCCC2)CCN1S(=O)(=O)c1ccc(CCNC(=O)c2ccco2)cc1 | 0.013 | 160 | ED20 (Rattus norvegicus [3]): 0.22 mmol/kg
CC(=O)NCCc1ccc(S(=O)(=O)N2CCN(C3CCCCC3)C2=N)cc1 | 0.038 | 240 | 
COc1cccc(C(=O)NCCc2ccc(S(=O)(=O)N3CCN(C4CCCCC4)C3=N)cc2)c1 | 0.062 | 380 | ED20 (Rattus norvegicus [6]): 0.31 mmol/kg
CN(C)CC(=O)NCCc1ccc(S(=O)(=O)N2CCN(C3CCCCC3)C2=N)cc1 | 0.057 | 180 | 
C[S+]([O-])CCC(=O)NCCc1ccc(S(=O)(=O)N2CCN(C3CCCCC3)C2=N)cc1 (stereo not drawn) | 0.056 | 200 | ED20 (Rattus norvegicus [3]): 0.86 mmol/kg
C/N=C(\S)NCCc1ccc(S(=O)(=O)N2CCN(C3CCCCC3)C2=N)cc1 | 0.031 | 240 | 
C=CC(=O)NCCc1ccc(S(=O)(=O)N2CCN(C3CCCCC3)C2=N)cc1 | 0.042 | 210 | 
COc1ccc(Cl)cc1C(=O)NCCc1ccc(S(=O)(=O)NC(=O)NC2CCCCC2)cc1 [GLYBURIDE] | 0.004 | 20 | ED20 (Rattus norvegicus [7]): > 0.5 mmol/kg
CC1=CCC(C(=O)NCCc2ccc(S(=O)(=O)N3CCN(C4CCCCC4)C3=N)cc2)CC1 (stereo not drawn) | 0.11 | 910 | 
CC/N=C(\S)NCCc1ccc(S(=O)(=O)N2CCN(C3CCCCC3)C2=N)cc1 | 0.016 | 140 | 
N=C1N(C2CCCCC2)CCN1S(=O)(=O)c1ccc(CCNC(=O)CCN)cc1 | 0.065 | 370 | ED20 (Rattus norvegicus [3]): 0.76 mmol/kg
C=C(C(=O)NCCc1ccc(S(=O)(=O)N2CCN(C3CCCCC3)C2=N)cc1)c1ccccc1 | 0.014 | 48 | ED20 (Rattus norvegicus [3]): 0.96 mmol/kg

SMILES | ED20 (Rattus norvegicus [1]) [mmol/kg] | ED50 (Rattus norvegicus [2]) [µmol/kg] | also measured
CCOC(=O)NCCc1ccc(S(=O)(=O)N2CCN(C3CCCCC3)C2=N)cc1 | 0.035 | 170 | 
CC(N)C(=O)NCCc1ccc(S(=O)(=O)N2CCN(C3CCCCC3)C2=N)cc1 (stereo not drawn) | 0.059 | 160 | ED20 (Rattus norvegicus [3]): 0.46 mmol/kg
CC[S+]([O-])CC(=O)NCCc1ccc(S(=O)(=O)N2CCN(C3CCCCC3)C2=N)cc1 (stereo not drawn) | 0.074 | 240 | ED20 (Rattus norvegicus [3]): 0.85 mmol/kg
CCCC(=O)NCCc1ccc(S(=O)(=O)N2CCN(C3CCCCC3)C2=N)cc1 | 0.024 | 83 | ED20 (Rattus norvegicus [6]): 0.52 mmol/kg
C/C=C\C(=O)NCCc1ccc(S(=O)(=O)N2CCN(C3CCCCC3)C2=N)cc1 | 0.0038 | 38 | 
CSc1ccccc1C(=O)NCCc1ccc(S(=O)(=O)N2CCN(C3CCCCC3)C2=N)cc1 | 0.064 | 620 | 
N=C1N(C2CCCCC2)CCN1S(=O)(=O)c1ccc(CCNC(=O)Oc2ccccc2)cc1 | 0.042 | > 850 | 
C=CCCC(=O)NCCc1ccc(S(=O)(=O)N2CCN(C3CCCCC3)C2=N)cc1 | 0.0069 | 15 | ED20 (Rattus norvegicus [3]): 0.36 mmol/kg
N=C1N(C2CCCCC2)CCN1S(=O)(=O)c1ccc(CCNC(=O)/C=C/c2ccccc2)cc1 | 0.11 |  | ED50 (Rattus norvegicus [5]): > 630 µmol/kg
C/C=C(/C)C(=O)NCCc1ccc(S(=O)(=O)N2CCN(C3CCCCC3)C2=N)cc1 | 0.0035 | 17 | 
CSCCC(=O)NCCc1ccc(S(=O)(=O)N2CCN(C3CCCCC3)C2=N)cc1 | 0.053 | 200 | 
CCCCN(C)C(=O)NCCc1ccc(S(=O)(=O)N2CCN(C3CCCCC3)C2=N)cc1 | 0.054 | 320 | 
N=C1N(C2CCCCC2)CCN1S(=O)(=O)c1ccc(CCNC=O)cc1 | 0.053 | 260 | 
N=C1N(C2CCCCC2)CCN1S(=O)(=O)c1ccc(CCNC(=O)CNc2ccccc2)cc1 | 0.064 | 320 | ED20 (Rattus norvegicus [3]): 0.4 mmol/kg
N=C1N(C2CCCCC2)CCN1S(=O)(=O)c1ccc(CCNC(=S)NC2CCCC2)cc1 | 0.05 | 210 | 
CC(C(=O)NCCc1ccc(S(=O)(=O)N2CCN(C3CCCCC3)C2=N)cc1)N(C)C (stereo not drawn) | 0.024 | 62 | 
CCOCC(=O)NCCc1ccc(S(=O)(=O)N2CCN(C3CCCCC3)C2=N)cc1 | 0.044 | 150 | 
CCSCC(=O)NCCc1ccc(S(=O)(=O)N2CCN(C3CCCCC3)C2=N)cc1 | 0.055 | 200 | ED20 (Rattus norvegicus [3]): 0.57 mmol/kg
Cc1ccccc1C(=O)NCCc1ccc(S(=O)(=O)N2CCN(C3CCCCC3)C2=N)cc1 | 0.022 |  | ED50 (Rattus norvegicus [5]): > 850 µmol/kg
C=C(C)C(=O)NCCc1ccc(S(=O)(=O)N2CCN(C3CCCCC3)C2=N)cc1 | 0.024 | 220 | 
COc1ccc(C(=O)NCCc2ccc(S(=O)(=O)N3CCN(C4CCCCC4)C3=N)cc2)cc1OC | 0.066 | 780 | 
CCC/C=C/C(=O)NCCc1ccc(S(=O)(=O)N2CCN(C3CCCCC3)C2=N)cc1 | 0.009 | 22 | ED20 (Rattus norvegicus [3]): 0.81 mmol/kg
